Data set [1] is described as follows: Pharmacokinetic Profile Evaluation (mouse PK). The class given is in vivo, CD-1 mice. As to conditions: CD-1, plasma, oral administration at 5 mg/kg. As for the experimental part:
Species and strain: CD-1 mice of SPF. Source: Sino-British SIPPR/BK Lab Animal Ltd, Shanghai. 3 mice were intravenously administrated with given compounds (Formulation: 5% DMSO+10% Solutol+85% Saline) or orally gavage administrated with given compounds (Formulation: 5% DMSO+10% Solutol+85% Saline). The blood samples were taken via cephalic vein at timepoints 0.083 h, 0.25 h, 0.5 h, 1 h, 2 h, 4 h, 8 h and 24 h after intravenous administration or at timepoints 0.25 h, 0.5 h, 1 h, 2 h, 4 h, 6 h, 8 h and 24 h after oral gavage administration, 30 μL/time point. Blood samples were placed in tubes containing K2-EDTA and stored on ice until centrifuged. The blood samples were centrifuged at 6800 g for 6 minutes at 2-8° C. within 1 h after collected and stored frozen at approximately −80° C. An aliquot of 10 μL plasma samples were protein precipitated with 200 μL MeOH in which contains 10 ng/mL Verapamil (IS). The mixture was vortexed for 1 min and centrifuged at 18000 g for 7 min. Transfer 180 μL supernatant to 96 well plates. An aliquot of 6 μL supernatant was injected for LC-MS/MS analysis by LC-MS/MS-04 (API4000) instrument. The analytical results were confirmed using quality control samples for intra-assay variation. The accuracy of >66.7% of the quality control samples should be between 80-120% of the known value(s). Standard set of parameters including Area Under the Curve (AUC(0-t) and AUC(0-∞)), elimination half-live (T1/2), maximum plasma concentration (Cmax), will be calculated using noncompartmental analysis modules in FDA certified pharmacokinetic program Phoenix WinNonlin 7.0 (Pharsight, USA).

Another data set concerns the target DGKA (Homo sapiens (Human), UniProt P23743). The data set is described as follows: DGKA Inhibition ADP-Glo Assay. The class given is biochemical. Conditions: 40 μM ATP, 200 μM DLG in substrate working solution, 25° C., 60 min. On the procedure: The DGKA inhibition reactions were performed using ADP-Glo assay. The reactions were carried out in 50 mM HEPES, 100 mM NaCl, 10 mM MgCl2, 1 mM CaCl2, 0.005% TritonX-100 and 1 mM DTT as working solution (pH=7.5). 30 nL DMSO solution of each test compound (Top concentration 0.4 μM with 10 point, 4-fold dilution series for each compound) were transferred to 384 well plate by Echo and 5 μL DGKA (SignalChem, D21-10BG) enzyme working solution at 2×final reaction concentration was added to each well. After incubated at 25° C. for 15 minutes, 5 μL substrate working solution contain 40 μM ATP (Promega, V915B) and 200 μM DLG (SignalChem, D430-59) were added to initiate reaction. After enzymatic reaction at 25° C. for 60 min, ADP Glo assay reagents (Promega, V9102) were added and luminescence was recorded using an EnVision following the instruction of manual. […] The IC50 value was calculated via a regression analysis of the inhibition rate.

The next data set has as its system Human Pan T cells. The experiment in a line: IL-2 Release Detection Assay. The class given is cell-based. As to conditions: for Activation fold: Top activation/DMSO control; for Activation % at 100 nM: fitted curve at 100 nM/DMSO control*100%. On the procedure:
Add dilutions of compounds into the cells and incubate at 37° C. &5% CO2 for 24 hours. IL-2 in cell supernatant was detected by ELISA Kit (R&D, DY202). […] Top and Bottom: Plateaus in same units as Y. LogEC50: same log units as X. Activation fold: Top activation/DMSO control. Activation % at 100 nM: Activation of non-linear regression equation curve at the concentration of 100 nM/DMSO control*100%.

The text below walks through data of patent US20240051958A1, “DIACYLGLYCEROL KINASE (DGK) ALPHA INHIBITORS AND USES THEREOF” (priority 2022, published 2024).

DGKA, sequence (P23743 whole entry): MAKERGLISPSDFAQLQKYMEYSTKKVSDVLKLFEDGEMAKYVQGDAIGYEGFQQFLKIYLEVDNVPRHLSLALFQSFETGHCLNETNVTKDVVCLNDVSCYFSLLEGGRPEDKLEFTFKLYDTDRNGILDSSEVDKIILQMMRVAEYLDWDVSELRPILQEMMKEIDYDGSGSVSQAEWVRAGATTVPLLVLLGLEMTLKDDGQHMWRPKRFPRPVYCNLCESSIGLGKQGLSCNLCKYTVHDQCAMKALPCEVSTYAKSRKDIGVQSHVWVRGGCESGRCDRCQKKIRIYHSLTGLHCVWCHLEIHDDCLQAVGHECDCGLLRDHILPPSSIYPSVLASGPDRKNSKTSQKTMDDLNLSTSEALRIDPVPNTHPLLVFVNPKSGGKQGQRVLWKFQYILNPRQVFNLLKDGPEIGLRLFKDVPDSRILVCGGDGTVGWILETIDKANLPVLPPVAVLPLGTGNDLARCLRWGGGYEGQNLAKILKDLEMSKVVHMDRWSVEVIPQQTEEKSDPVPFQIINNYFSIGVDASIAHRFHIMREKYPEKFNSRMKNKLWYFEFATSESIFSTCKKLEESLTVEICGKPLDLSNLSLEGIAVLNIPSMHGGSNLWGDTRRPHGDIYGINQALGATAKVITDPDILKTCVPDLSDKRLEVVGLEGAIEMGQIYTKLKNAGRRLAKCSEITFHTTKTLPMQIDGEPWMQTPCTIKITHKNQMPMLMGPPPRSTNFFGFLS

`Cc1ccc2oc(C3CCN(c4cc(=O)n(C)c5cc(OCCO)c(C#N)nc45)CC3)nc2c1` [Example 23, 3-(2-hydroxyethoxy)-5-methyl-8-(4-(5-methylbenzo[d]oxazol-2-yl)piperidin-1-yl)-6-oxo-5,6-dihydro-1,5-naphthyridine-2-carbonitrile]: in data set [1], the total exposure AUC(0-inf) (in general, total exposure, with the tail of the curve extrapolated) worked out at 12100 ng·h/mL; the AUC(0-t) – broadly, exposure summed from dosing to a finite time, without extrapolation to infinity – was determined as 12000 ng·h/mL; the maximum concentration (Cmax) – broadly, the highest concentration seen after dosing – came out at 1820 ng/mL; the half-life (as a rule, how long it takes for the measured level to halve) was 3.51 h. Besides, the IC50 (as a rule, the concentration needed to halve the response being measured) against DGKA came to 0.27 nM. Moreover, in the data set on Human Pan T cells, the Activation fold is on record as 24.5 and the “Activation % at 100 nM” value is given as 931%.

In data set [1], `Cn1c(=O)cc(N2CCC(c3nc4cc(F)ccc4o3)CC2)c2nc(C#N)ccc21` [Example 12, 8-(4-(5-fluorobenzo[d]oxazol-2-yl)piperidin-1-yl)-5-methyl-6-oxo-5,6-dihydro-1,5-naphthyridine-2-carbonitrile] gave an AUC(0-inf) of 5940 ng·h/mL, an AUC(0-t) of 5460 ng·h/mL, a Cmax of 1100 ng/mL and a half-life of 3.56 h. The same compound registered an IC50 against DGKA of 1.35 nM. Also, in the data set with Human Pan T cells, the Activation fold is 8.5 and the “Activation % at 100 nM” value was found to be 340%.

`Cc1ccc2oc(C3CCN(c4cc(=O)n(C)c5cc(OC6CCOC6)c(C#N)nc45)CC3)nc2c1` (centres unmarked) [Example 21, 5-methyl-8-(4-(5-methylbenzo[d]oxazol-2-yl)piperidin-1-yl)-6-oxo-3-((tetrahydrofuran-3-yl)oxy)-5,6-dihydro-1,5-naphthyridine-2-carbonitrile]: at DGKA, the IC50 worked out at 0.23 nM. In addition, in the data set on Human Pan T cells, the Activation fold was determined as 10.1 and the “Activation % at 100 nM” value is 520%.

On to `Cc1ccc2oc(C3CCN(c4cc(=O)n(C)c5ccc(C#N)nc45)CC3)nc2c1` [Example 1, 5-methyl-8-(4-(5-methylbenzo[d]oxazol-2-yl)piperidin-1-yl)-6-oxo-5,6-dihydro-1,5-naphthyridine-2-carbonitrile], for which, in data set [1], the AUC(0-inf) worked out at 6150 ng·h/mL, the AUC(0-t) came to 5980 ng·h/mL, the Cmax came to 1880 ng/mL and the half-life was 1.46 h. The same compound came in with an IC50 at DGKA of 1.99 nM. Further, in the data set with Human Pan T cells, the Activation fold worked out at 17.7 and the “Activation % at 100 nM” value was found to be 416%.

In turn, `Cc1ccc2oc(C3CCN(c4cc(=O)n(C)c5ccc(Cl)cc45)CC3)nc2c1` [Example 2, 6-chloro-1-methyl-4-(4-(5-methylbenzo[d]oxazol-2-yl)piperidin-1-yl)quinolin-2(1H)-one] had an IC50 against DGKA of 0.47 nM. For the same compound, in the data set on Human Pan T cells, the Activation fold was 5.3 and the “Activation % at 100 nM” value was 234%.

For `Cc1ccc2oc(C3CCN(c4cc(=O)n(C)c5cc(O[C@@H]6CCOC6)c(C#N)nc45)CC3)nc2c1` [Example 28, (R)-5-methyl-8-(4-(5-methylbenzo[d]oxazol-2-yl)piperidin-1-yl)-6-oxo-3-((tetrahydrofuran-3-yl)oxy)-5,6-dihydro-1,5-naphthyridine-2-carbonitrile], in data set [1], the AUC(0-inf) turned out to be 3460 ng·h/mL, the AUC(0-t) came out at 3410 ng·h/mL, the peak level (Cmax) was 677 ng/mL and the half-life is 2.67 h. This compound also showed an IC50 against DGKA of 0.14 nM.
